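The compound was tested at five concentrations on cells cultured in 96-well plates, with a 48-hour exposure period. GI50 is the concentration that inhibits growth by half.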 The source made the active and inactive calls. Cut-off read from the data, not from the text of the source: active = GI50 up to about 1.1 µM and inactive = higher.
What was measured:
Experiment in all cases: growth of human tumour cells (NCI), 48 h
A498 = test system: A498
CCRF-CEM = test system: CCRF-CEM
COLO 205 = test system: COLO 205
HCT-116 = test system: HCT-116
HCT-15 = test system: HCT-15
HT-29 = test system: HT-29
Malme-3M = test system: Malme-3M
OVCAR-5 = test system: OVCAR-5
OVCAR-8 = test system: OVCAR-8
RXF 393 = test system: RXF 393
SF-268 = test system: SF-268
SF-295 = test system: SF-295
SK-MEL-28 = test system: SK-MEL-28
TK-10 = test system: TK-10
U-251 = test system: U-251
NCI-H226 = test system: NCI-H226
RPMI-8226 = test system: RPMI-8226
SK-OV-3 = test system: SK-OV-3

Row | SMILES | GI50 (A498) | GI50 (CCRF-CEM) | GI50 (COLO 205) | GI50 (HCT-116) | GI50 (HCT-15) [µM] | GI50 (HT-29) | GI50 (Malme-3M) | GI50 (OVCAR-5) | GI50 (OVCAR-8) | GI50 (RXF 393) | GI50 (SF-268) | GI50 (SF-295) | GI50 (SK-MEL-28) | GI50 (TK-10) | GI50 (U-251) | GI50 (NCI-H226) | GI50 (RPMI-8226) | GI50 (SK-OV-3)
1 | NCCCNCc1c2ccccc2c(CNCCCN)c2ccccc12 | 23.1 µM (inactive) | 16.9 µM (inactive) | 7.66 µM (inactive) | 5.35 µM (inactive) | 22 | 18.2 µM (inactive) | 11.7 µM (inactive) | 21.3 µM (inactive) | 14.6 µM (inactive) | 15.2 µM (inactive) | 5.12 µM (inactive) | 22.3 µM (inactive) | > 10 µM (inactive) | 32.5 µM (inactive) | 33.4 µM (inactive) | – | – | –
2 | Cc1nc(N2N=C(c3ccc(Cl)cc3)CCC2=O)sc1[N+](=O)[O-] | – | > 100 µM (inactive) | > 100 µM (inactive) | > 100 µM (inactive) | > 100 | > 100 µM (inactive) | > 100 µM (inactive) | – | > 100 µM (inactive) | > 100 µM (inactive) | > 100 µM (inactive) | > 100 µM (inactive) | > 100 µM (inactive) | > 100 µM (inactive) | > 100 µM (inactive) | > 100 µM (inactive) | > 100 µM (inactive) | > 100 µM (inactive)
3 | Cc1ccc(NC(=O)c2cc3cc(/N=N/c4ccccc4C(=O)O)ccc3oc2=O)cc1 | – | 30.2 µM (inactive) | 35.3 µM (inactive) | 28.4 µM (inactive) | 34.5 | 38.5 µM (inactive) | 43.2 µM (inactive) | – | 58.7 µM (inactive) | 51.4 µM (inactive) | – | 44.4 µM (inactive) | 37.5 µM (inactive) | 58.9 µM (inactive) | 43.2 µM (inactive) | 39.4 µM (inactive) | 18.6 µM (inactive) | 74 µM (inactive)
4 | CC(O)C(C(=O)O)N(CC1(O)OCC(O)C(O)C1O)N=O (stereo unspecified) | > 100 µM (inactive) | > 100 µM (inactive) | > 100 µM (inactive) | > 100 µM (inactive) | – | > 100 µM (inactive) | > 100 µM (inactive) | > 100 µM (inactive) | > 100 µM (inactive) | > 100 µM (inactive) | – | – | > 100 µM (inactive) | > 100 µM (inactive) | > 100 µM (inactive) | – | > 100 µM (inactive) | > 100 µM (inactive)
5 | CCCCCCCCCCCCCCCC(=O)OCC1OC(n2cc(F)c(=O)[nH]c2=O)C(N)C(O)C1O (stereo unspecified) | 25.9 µM (inactive) | 16 µM (inactive) | 18.5 µM (inactive) | 20 µM (inactive) | – | 20.6 µM (inactive) | 19.4 µM (inactive) | 27 µM (inactive) | 20.5 µM (inactive) | – | 19.5 µM (inactive) | 17.1 µM (inactive) | 16.9 µM (inactive) | 21.9 µM (inactive) | 18.5 µM (inactive) | 17.5 µM (inactive) | 23.3 µM (inactive) | 22.4 µM (inactive)
6 | COC(=O)c1c/c(=N\NC(=O)CC(=O)Nc2ccccc2Cl)c2ccccc2o1 | > 10 µM (inactive) | – | > 100 µM (inactive) | > 100 µM (inactive) | > 100 | > 100 µM (inactive) | – | > 100 µM (inactive) | > 100 µM (inactive) | – | > 100 µM (inactive) | > 100 µM (inactive) | > 100 µM (inactive) | > 100 µM (inactive) | > 100 µM (inactive) | 27.7 µM (inactive) | > 100 µM (inactive) | > 100 µM (inactive)
7 | COc1cc(-c2nccc3cc(OC)c(OC)cc23)ccc1O | – | 38.5 µM (inactive) | 40.5 µM (inactive) | 49 µM (inactive) | 27.9 | 30.8 µM (inactive) | > 100 µM (inactive) | 34.9 µM (inactive) | 44.1 µM (inactive) | – | – | 25.6 µM (inactive) | > 100 µM (inactive) | 42 µM (inactive) | 70.6 µM (inactive) | > 100 µM (inactive) | 21.4 µM (inactive) | 68.2 µM (inactive)
8 | Fc1ccccc1C1CC(c2ccc3ccccc3c2)=Nc2ccccc2S1 (stereo unspecified) | > 100 µM (inactive) | > 100 µM (inactive) | > 100 µM (inactive) | > 100 µM (inactive) | – | > 100 µM (inactive) | > 100 µM (inactive) | > 100 µM (inactive) | > 100 µM (inactive) | > 100 µM (inactive) | > 100 µM (inactive) | > 100 µM (inactive) | > 100 µM (inactive) | > 100 µM (inactive) | > 100 µM (inactive) | > 100 µM (inactive) | – | > 100 µM (inactive)
9 | OCC(O)C(O)C(O)C(O)c1nnn[nH]1 (stereo unspecified) | – | > 100 µM (inactive) | > 100 µM (inactive) | > 100 µM (inactive) | > 100 | > 100 µM (inactive) | > 100 µM (inactive) | > 100 µM (inactive) | > 100 µM (inactive) | – | > 100 µM (inactive) | > 100 µM (inactive) | – | – | > 100 µM (inactive) | > 100 µM (inactive) | > 100 µM (inactive) | > 100 µM (inactive)
10 | CCN1C[C@]2(C)CC[C@H](O)C34C1C(C[C@@H]32)[C@@]1(O)CC[C@H]2C[C@@H]4[C@@H]1[C@H]2O | – | > 100 µM (inactive) | > 100 µM (inactive) | > 100 µM (inactive) | > 100 | > 100 µM (inactive) | > 100 µM (inactive) | > 100 µM (inactive) | > 100 µM (inactive) | > 100 µM (inactive) | > 100 µM (inactive) | > 100 µM (inactive) | > 100 µM (inactive) | > 100 µM (inactive) | > 100 µM (inactive) | – | > 100 µM (inactive) | > 100 µM (inactive)
11 | COc1cc2c(cc1OC)C(Cc1cc(Br)c(OC)c(OC)c1)=[N+](C)CC2 | – | 92.5 µM (inactive) | 40.6 µM (inactive) | > 100 µM (inactive) | > 100 | 33.2 µM (inactive) | > 100 µM (inactive) | 45.1 µM (inactive) | 27 µM (inactive) | 69.7 µM (inactive) | > 100 µM (inactive) | 30.5 µM (inactive) | > 100 µM (inactive) | 59.6 µM (inactive) | 8.17 µM (inactive) | 31.6 µM (inactive) | 43.2 µM (inactive) | > 100 µM (inactive)
12 | O=c1[nH]c(-c2ccccc2)nc2ccc(Cl)cc12 | – | – | > 100 µM (inactive) | > 100 µM (inactive) | 35.7 | 36.8 µM (inactive) | 48.6 µM (inactive) | > 100 µM (inactive) | 43.8 µM (inactive) | 20 µM (inactive) | 28 µM (inactive) | 73.6 µM (inactive) | 23.4 µM (inactive) | 35.2 µM (inactive) | > 100 µM (inactive) | > 100 µM (inactive) | 33.2 µM (inactive) | –
13 | Brc1ccccc1C1SCc2nc3ccccc3n21 (stereo unspecified) | – | 21 µM (inactive) | 16.7 µM (inactive) | 8.07 µM (inactive) | 9.84 | 23.5 µM (inactive) | 18.8 µM (inactive) | 10.2 µM (inactive) | 23.6 µM (inactive) | 9.33 µM (inactive) | 20 µM (inactive) | 23.8 µM (inactive) | > 10 µM (inactive) | 20 µM (inactive) | 15.7 µM (inactive) | 17.1 µM (inactive) | 13.7 µM (inactive) | 20.7 µM (inactive)

Source: ChEMBL document CHEMBL1201862, “PubChem BioAssay data set” (2004)
